According to patent US10835535B2, “Certain protein kinase inhibitors” (Shanghai Fochon Pharmaceutical Co., Ltd., priority 2016, dated 2020):

Experiments:
[1] = test system: JEKO-1 cells; experiment: Cell proliferation assay (MTS) in JEKO-1 cells; assay type: cell-based; conditions: Homo sapiens, 48 h
From the text: (§1) MTS testing kit was purchased from Promega. The DMEM, Fetal bovine serum and Penicillin-Streptomycin were purchased from Gibco. Dimethyl sulfoxide (DMSO) was purchased from Sigma.
(§2) To investigate whether a compound is able to inhibit the activity of CDK4/6 in cells, mechanism-based assays using BE2C (ATCC® number: CRL-2268) or JEKO-1 (ATCC® number: CRL-3006) cell were developed. In the assay, inhibition of CDK4/6 was detected by the inhibition of BE2C or JEKO-1 cell cells proliferation. BE2C or JEKO-1 cell cells were cultured in culture flasks to 40-80% confluence in DMEM plus 10% fetal bovine serum. Cells were collected and plated onto 96-well plates at desired cell density (BE2C: 3000 cells/well; JEKO-1: 30000 cells/well). Plates were incubated overnight at 37° C., with 5% CO2 to adhere. Compounds were added to the plates, the final compound concentrations were 10000, 3333, 1111, […], 123.5, 41.2, 13.7, 4.6 and 1.5 nM. Place plates at 37° C., with 5% CO2 for 48 h. After removing the medium, 20 μl MTS/100 μl medium mixture solution were added to each well and incubate the plates for exactly 2 hours. Stop the reaction by adding 25 μl 10% SDS per well. Measure absorbance at 490 nm and 650 nm (reference wavelength). IC50 was calculated using GraphPad Prism 5.0.
(§3) Select compounds prepared as described above were assayed according to the biological procedures described herein. “+++” stands for IC50 value between greater than about 10 nM to about 100 nM. “++” stands for IC50 value between greater than about 100 nM to about 1 μM. “+” stands for IC50 value greater than 1 μM.

[2] = test system: BE2C cells; experiment: Cell proliferation assay (MTS) in BE2C cells; assay type: cell-based; conditions: Homo sapiens, BE(2)-C, 48 h
From the text: as §1, §2, §3

[3] = test system: COLO205 xenograft tumors; experiment: Tumor growth inhibition in COLO205 xenograft tumors; assay type: in vivo, mice; conditions: for TGI %: TGI = (1−T/C)×100%
Procedure: COLO205 cells were cultured with RPMI-1640 medium containing 10% fetal bovine serum (FBS) at 37° C. in 5% CO^2 incubator. Logarithmic growth phase cells were collected. COLO205 cells (5×10^6 in 200 μL PBS) were implanted subcutaneously into the left flank region, and tumor growth was monitored. Tumor volume (V) was estimated from the length (l) and width (w) of the tumor using the following formula: V=1/2×l×w^2. Treatment started when average tumor size was 100-200 mm^3.
The dosage and dosage regimen were as shown table 2. Tumor volumes and mice weight were measured 2 to 3 times every week.
Drug efficacy was assessed as Tumor Growth Inhibition (TGI) and T/C ratio. TGI was defined as (1−T/C)×100%, wherein T/C (%) presented the ratio of the change in mean tumor volume of the treated group and of the control group.

[4] = Pharmacokinetic properties in dogs; assay type: in vivo; conditions: dog, po; male Beagle dogs, 3 mg/kg p.o., plasma
Procedure: Each test compounds was suspended in 0.5% methylcellulose (400 cP, w/v) in water.
Grouping male Beagle dogs was administered with test compound at a dose of 3 mg/kg by oral. After administering, blood samples were collected at time points of 0.25, 0.50, 1.0, 2.0, 4.0, 8.0 and 24.0 h. Standard curve was plotted based on concentrations of the samples in a suitable range, and the concentration of test compounds in plasma samples were determined by using LC-MS/MS. Pharmacokinetic parameters were calculated according to drug concentration-time curve using a non-compartmental method by Phoenix WinNonLin 6.3 software.

Structure (SMILES)	IC50 [1]	IC50 [2]	T/C % ([3]; 30 mg/kg PO QD × 14 days)	TGI % ([3]; 30 mg/kg PO QD × 14 days)	AUC(0-inf) [4]	AUC(0-t) [4]	Cmax [4]	half-life [4]	T/C % ([3]; 60 mg/kg PO QD × 14 days)	TGI % ([3]; 60 mg/kg PO QD × 14 days)
CN(C)C(=O)c1sc2cnc(Nc3ccc(N4CCN(C5CCNCC5)CC4)cn3)nc2c1C1CCCC1 [Example 1, 7-cyclopentyl-N,N-dimethyl-2-((5-(4-(piperidin-4-yl)piperazin-1-yl)pyridin-2-yl)amino)thieno[3,2-d]pyrimidine-6-carboxamide]	100 to 1000 nM									
CCN1CCC(N2CCN(c3ccc(Nc4ncc5sc(C(=O)N(C)C)c(C6CCCC6)c5n4)nc3)CC2)CC1 [Example 2, 7-cyclopentyl-2-((5-(4-(1-ethylpiperidin-4-yl)piperazin-1-yl)pyridin-2-yl)amino)-N,N-dimethylthieno[3,2-d]pyrimidine-6-carboxamide]	100 to 1000 nM	10 to 100 nM	0.88%	99.12%	7010 ng·h/mL	2500 ng·h/mL	127 ng/mL	26 h		
CN1CCC(N2CCN(c3ccc(Nc4ncc5sc(C(=O)N(C)C)c(C6CCCC6)c5n4)nc3)CC2)CC1 [Example 3, 7-cyclopentyl-N,N-dimethyl-2-((5-(4-(1-methylpiperidin-4-yl)piperazin-1-yl)pyridin-2-yl)amino)thieno[3,2-d]pyrimidine-6-carboxamide]	100 to 1000 nM	10 to 100 nM								
CN(C)C(=O)c1sc2cnc(Nc3ccc(N4CCC(N5CCNCC5)CC4)cn3)nc2c1C1CCCC1 [Example 4, 7-cyclopentyl-N,N-dimethyl-2-((5-(4-(piperazin-1-yl)piperidin-1-yl)pyridin-2-yl)amino)thieno[3,2-d]pyrimidine-6-carboxamide]		100 to 1000 nM								
CN1CCN(C2CCN(c3ccc(Nc4ncc5sc(C(=O)N(C)C)c(C6CCCC6)c5n4)nc3)CC2)CC1 [Example 5, 7-cyclopentyl-N,N-dimethyl-2-((5-(4-(4-methylpiperazin-1-yl)piperidin-1-yl)pyridin-2-yl)amino)thieno[3,2-d]pyrimidine-6-carboxamide]	10 to 100 nM	10 to 100 nM			7520 ng·h/mL	4660 ng·h/mL	312 ng/mL	16.1 h	−2.31%	102.31%
CCN1CCN(C2CCN(c3ccc(Nc4ncc5sc(C(=O)N(C)C)c(C6CCCC6)c5n4)nc3)CC2)CC1 [Example 6, 7-cyclopentyl-2-((5-(4-(4-ethylpiperazin-1-yl)piperidin-1-yl)pyridin-2-yl)amino)-N,N-dimethylthieno[3,2-d]pyrimidine-6-carboxamide]	10 to 100 nM	10 to 100 nM			7340 ng·h/mL	5030 ng·h/mL	404 ng/mL	13.2 h	−2.97%	102.97%
CN(C)C(=O)c1sc2cnc(Nc3ccc(N4CCC(N5CCOCC5)CC4)cn3)nc2c1C1CCCC1 [Example 7, 7-cyclopentyl-N,N-dimethyl-2-((5-(4-morpholinopiperidin-1-yl)pyridin-2-yl)amino)thieno[3,2-d]pyrimidine-6-carboxamide]		10 to 100 nM								
CN1CCN(c2ccc(Nc3ncc4sc(C(=O)N(C)C)c(C5CCCC5)c4n3)nc2)CC1 [Reference Compound 1, 7-cyclopentyl-N,N-dimethyl-2-(5-(4-methylpiperazin-1-yl)pyridin-2-ylamino)thieno[3,2-d]pyrimidine-6-carboxamide, reference compound]					103 ng·h/mL	83 ng·h/mL	36 ng/mL	5.36 h		
CN(C)C(=O)c1cc2cnc(Nc3ccc(N4CCNCC4)cn3)nc2n1C1CCCC1 [Ribociclib, reference compound]									25.6%	74.40%
